Data on six compounds can be found in patent publication US4100284A, “1,4-Dioxo- and 4-oxoquinoxaline-2-carboxaldehyde sulfonylhydrazones and certain derivatives thereof” (Pfizer Inc., priority 1977, dated 1978).

Converted amounts (≈) assume the structure as drawn.

One assay concerns E. Coli. As to the kind of experiment: In vitro antibacterial activity, two-fold serial dilution in Brain-Heart Infusion broth (MIC). It is filed as cell-based. Particulars: Escherichia coli, anaerobic, overnight. On the procedure: (§1) The broth is inoculated with bacteria, and with the test compound of formula (I), and then it is incubated overnight under anaerobic conditions. On the next day, the test is read visually. The minimum inhibitory concentration (MIC) of test compound is the lowest concentration which prevents turbidity, i.e., which prevents growth of the microoganism.

A further assay concerns Pasteurella multocida. The assay is described as above. It is filed as cell-based. Particulars: anaerobic, overnight. On the procedure:
as §1

Assay [1] relates to Salmonella cholerasuis. The assay is described as above. It is filed as cell-based. The conditions noted are these: anaerobic, overnight. The method, then:
as §1

The test system of another assay is Staph. aureus. The assay is described as above. The class given is cell-based. The conditions noted are these: Staphylococcus aureus, anaerobic, overnight. On the procedure:
as §1

Another assay relates to Strep. pyogenes. Described as above. It is filed as cell-based. Particulars: Streptococcus pyogenes, anaerobic, overnight. On the procedure: as §1
Assay [2] concerns Salmonella cholerasuis. The assay can be described thus: In vivo protection of mice against a lethal challenge of Salmonella cholerasuis. Particulars: at 25 mg./Kg., multiple dosing. On the procedure: The compounds of formula (I) also show antibacterial activity in vivo. In determining such activity, the test compound is administered to mice which have been infected by intraperitoneal injection of a lethal inoculum of pathogenic bacteria. The test compound is administered using a multiple dosing regimen, and using either the oral (PO) or the subcutaneous (SC) route. The inoculum of bacteria varies from one to about ten times the amount needed to kill 100% of the mice, under the conditions of the test. At the end of the test, the activity of a compound is assessed by counting the number of survivors among the treated animals. Results are also given in Table I, wherein the ability of the compound to protect mice against a lethal challenge of Salmonella cholerasuis is presented.

Turning to `O=S(=O)(NN=Cc1c[n+]([O-])c2ccccc2[n+]1[O-])c1ccccc1` [N → O, H, H, C6 H5, 1,4-Dioxoquinoxaline-2-carboxaldehyde Benzenesulfonylhydrazone], the MIC against E. Coli stood at 12.5 µg/mL (≈ 36.3 µM); in the assay with Pasteurella multocida, 12.5 µg/mL (≈ 36.3 µM); with Salmonella cholerasuis [1], 12.5 µg/mL (≈ 36.3 µM); against Staph. aureus, 100 µg/mL (≈ 290 µM); in the assay with Strep. pyogenes, 25 µg/mL (≈ 72.6 µM).
Turning to `O=S(=O)(NN=Cc1c[n+]([O-])c2ccccc2[n+]1[O-])c1ccc(F)cc1` [N → O, H, H, 4-FC6 H4], the MIC was determined as 3.12 µg/mL (≈ 8.62 µM) with E. Coli; 3.12 µg/mL (≈ 8.62 µM) with Pasteurella multocida; 6.25 µg/mL (≈ 17.2 µM) against Salmonella cholerasuis [1]; 25 µg/mL (≈ 69 µM) in the assay with Staph. aureus; 12.5 µg/mL (≈ 34.5 µM) in the assay with Strep. pyogenes. Besides, in the assay on Salmonella cholerasuis [2], the “% Survivors vs. Sal. Cholarasuis, PO” value is 10%. Besides, in the assay on Salmonella cholerasuis [2], the “% Survivors vs. Sal. Cholarasuis, SC” value turned out to be 30%.
On to `Cc1ccc(S(=O)(=O)NN=Cc2c[n+]([O-])c3ccccc3n2)cc1` [N, H, H, 4-CH3 C6 H4, 4-Oxoquinoxaline-2-carboxaldehyde p-Toluenesulfonylhydrazone], for which the MIC is 3.12 µg/mL (≈ 9.13 µM) in the assay with E. Coli; 3.12 µg/mL (≈ 9.13 µM) against Pasteurella multocida; 3.12 µg/mL (≈ 9.13 µM) in the assay on Salmonella cholerasuis [1]; 25 µg/mL (≈ 73 µM) against Staph. aureus; 12.5 µg/mL (≈ 36.5 µM) with Strep. pyogenes. The “% Survivors vs. Sal. Cholarasuis, PO” value in the assay with Salmonella cholerasuis [2] came to 60%. The “% Survivors vs. Sal. Cholarasuis, SC” value in the assay with Salmonella cholerasuis [2] amounted to 100%.
In the case of `Cc1ccc(S(=O)(=O)NN=Cc2c[n+]([O-])c3ccccc3[n+]2[O-])cc1` [N → O, H, H, 4-CH3 C6 H4, 1,4-Dioxoquinoxaline-2-carboxaldehyde p-Toluenesulfonylhydrazone], the MIC is 1.56 µg/mL (≈ 4.35 µM) in the assay with E. Coli; 3.12 µg/mL (≈ 8.72 µM) against Pasteurella multocida; 6.25 µg/mL (≈ 17.4 µM) against Salmonella cholerasuis [1]; 25 µg/mL (≈ 69.8 µM) against Staph. aureus; 12.5 µg/mL (≈ 34.9 µM) in the assay on Strep. pyogenes. Moreover, the “% Survivors vs. Sal. Cholarasuis, PO” value with Salmonella cholerasuis [2] is 30%. In the assay on Salmonella cholerasuis [2], the “% Survivors vs. Sal. Cholarasuis, SC” value is on record as 100%.
Regarding `CS(=O)(=O)NN=Cc1c[n+]([O-])c2ccccc2[n+]1[O-]` [N → O, H, H, CH3], the MIC against E. Coli was 3.12 µg/mL (≈ 11.1 µM); against Pasteurella multocida it was 12.5 µg/mL (≈ 44.3 µM); with Salmonella cholerasuis [1] it was 6.25 µg/mL (≈ 22.1 µM); in the assay on Staph. aureus, 25 µg/mL (≈ 88.6 µM); in the assay on Strep. pyogenes it was 12.5 µg/mL (≈ 44.3 µM). For the same compound, the “% Survivors vs. Sal. Cholarasuis, PO” value in the assay with Salmonella cholerasuis [2] came out at 10%. The “% Survivors vs. Sal. Cholarasuis, SC” value with Salmonella cholerasuis [2] is 60%.
For the compound `COc1ccc(S(=O)(=O)NN=Cc2c[n+]([O-])c3ccccc3n2)cc1` [N, H, H, 4-CH3 OC6 H4, 4-Oxoquinoxaline-2-carboxaldehyde p-Methoxybenzenesulfonylhydrazone], the MIC with E. Coli turned out to be 3.12 µg/mL (≈ 8.72 µM); with Pasteurella multocida, 1.56 µg/mL (≈ 4.35 µM); against Salmonella cholerasuis [1] it was 6.25 µg/mL (≈ 17.4 µM); against Staph. aureus, 12.5 µg/mL (≈ 34.9 µM); in the assay with Strep. pyogenes it was 6.25 µg/mL (≈ 17.4 µM).

One may read the MIC as the smallest concentration in the dilution series that meets the test's criterion for growth inhibition.
